Test [1] relates to membrane potential of pig heart mitochondria. Kind of test: Mitochondrial membrane potential assay (JC-10) in pig heart mitochondria. Type of test: biochemical. As to conditions: JC-10, 5 min incubation. From the text:
Next we analyzed the mechanism of action of DS16570511. The previous studies implicated two possible inhibitory mechanisms for the mitochondrial Ca^2+ uptake: (1) direct blockade of the calcium uniporter and (2) disruption of the membrane potential.[20],[21] Mitochondrial Ca^2+ uptake is mediated by electrical potential across the mitochondrial inner membrane, which is generated by the oxidative phosphorylation system. […] To examine effects on the mitochondrial membrane potential, fluorescent indicator JC-10 was used in mitochondria from pig heart.
(a) Effect of FCCP on Ca^2+ uptake of pig heart mitochondria. […] Relative membrane potential 0 or 100% is defined as value of 1 μM FCCP-treated mitochondria or vehicle-treated mitochondria, respectively. Data are mean with S.E.M. from three (a) or four (b) independent samples.
Pig heart mitochondria were prepared as described above and suspended in the swelling buffer containing 1 μM JC-10. The protein concentration of the solution was 5 mg/ml. Five minutes after incubation of the mitochondria with DS16570511 at room temperature, fluorescence intensities were measured by a FlexStation 3 (Molecular Devices, LLC, Sunnyvale, CA, USA) using the green channel (excitation/emission wavelength: 485/538 nm) or the red channel (excitation/emission wavelength: 485/612 nm).

For another test, the system named is Hela cells. Set-up: method as in PMID 17471180. The conditions noted are these: cited from earlier work.
The subject of the next test is cultured myocytes. Set-up: method as in PMID 22425903. The conditions noted are these: cited from earlier work.
The target in test [2] is T1, mitochondrial calcium uniporter (Homo sapiens, UniProt Q8NE86).
T1 sequence (Q8NE86 51-351): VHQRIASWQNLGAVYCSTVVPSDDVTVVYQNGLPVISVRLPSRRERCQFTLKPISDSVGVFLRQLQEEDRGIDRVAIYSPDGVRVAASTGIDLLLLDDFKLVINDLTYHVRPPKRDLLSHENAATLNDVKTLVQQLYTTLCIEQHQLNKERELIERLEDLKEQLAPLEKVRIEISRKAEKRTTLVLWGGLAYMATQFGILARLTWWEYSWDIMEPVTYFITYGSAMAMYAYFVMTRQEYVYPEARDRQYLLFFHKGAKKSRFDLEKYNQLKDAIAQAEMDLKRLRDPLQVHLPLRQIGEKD
T1 sequence (Q9H4I9 48-107 partner limits assumed): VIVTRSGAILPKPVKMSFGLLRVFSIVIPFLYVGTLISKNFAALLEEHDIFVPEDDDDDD
Kind of test: Ca2+ uptake of isolated mitochondria from HEK293A cells (aequorin luminescence). The class given is biochemical. More on the design: isolated mitochondria from HEK293A cells were used; endogenous in cells; host or cells: mitochondria isolated from HEK293A cells stably expressing mitochondria-targeted aequorin. The procedure: Mitochondrial Ca^2+ uptake activity is regulated by cytosolic protein kinase signaling,[19] raising the possibility that HTS hits contained indirect inhibitors of the uniporter, such as inhibitors of cytosolic signaling. To examine the direct inhibitory effect of the compounds on the mitochondrial Ca^2+ uptake, isolated mitochondria from HEK293A cells were used. Ca^2+ uptake of the isolated mitochondria was observed as a rapid increase in the luminescence level after application of 100 μM Ca^2+ (Figure 2a).
Figure 2 DS16570511 inhibits Ca^2+ uptake in isolated mitochondria from HEK293A cells. (a) Representative raw data of Ca^2+ uptake in isolated mitochondria. (b) Effect of DS16570511 or Ru360 on mitochondrial Ca^2+ uptake. The area under the curve of temporal aequorin activities is used for calculation of inhibitory activities. Inhibition 0 or 100% is defined as a value of […], respectively. Data are mean with S.E.M. from three independent samples.
To monitor Ca^2+ uptake activity of isolated mitochondria, mitochondria were prepared from the cells (1×10^8 cells) stably expressing mitochondria-targeted aequorin by using a mitochondria isolation kit. […] The luminescence levels were detected as described above.

For test [3], the system named is Ca2+ uptake of pig heart mitochondria. Kind of test: Ca2+ uptake assay using isolated pig heart mitochondria (atomic absorbance spectrometer). The class given is biochemical. As to conditions: 100 μM CaCl2. The procedure: (§1) We then asked whether DS16570511 inhibits Ca^2+ uptake in isolated mitochondria from animal heart. An atomic absorbance spectrometer-based detection method was employed to analyze intramitochondrial Ca^2+ levels. We prepared freshly isolated mitochondria from pig heart, and the mitochondria were incubated with 100 μM CaCl2.
(§2) (a) Effect of RuR on Ca^2+ uptake of pig heart mitochondria. […] Data are mean with S.E.M. from three independent samples. (b) Inhibition rate of RuR or DS16570511 on Ca^2+ uptake of pig heart mitochondria. Inhibition 0 or 100% is defined as a value of Ca^2+-untreated mitochondria or Ca^2+-treated mitochondria, respectively. Data are mean with S.E.M. from three independent samples. (c) Inhibition rate of RuR or DS16570511 on Ca^2+ uptake of rat heart mitochondria. Data are mean with S.E.M./variation from three or two independent samples for DS16570511 or RuR, respectively.
Mitochondria were isolated by using the mitochondria isolation kit and then dissolved in the swelling buffer. The protein concentration of the mitochondrial solution was 5 mg/ml. Thirty minutes after application of CaCl2 (final concentration of 100 μM) to the solution, the mitochondria were collected by centrifugation (3000 g) at 4 °C. The pellets were resuspended in the swelling buffer containing 1 μM RuR. After collection of the mitochondria by centrifugation (3000 g), the pellets were dried and dissolved by 40 μl of sulfuric acid at 95 °C.

For test [4], the system named is Ca2+ uptake of rat heart mitochondria. Kind of test: Ca2+ uptake assay using isolated rat heart mitochondria (atomic absorbance spectrometer). The class given is biochemical. As to conditions: 100 μM CaCl2; read-out: IC50, inhibition of Ca2+ uptake of rat heart mitochondria. The procedure:
as §1
as §2, with “Figure 3 DS16570511 inhibits Ca^2+ uptake in isolated heart mitochondria. (a)” for “(a)”
Mitochondria were isolated by using the mitochondria isolation kit and then dissolved in the swelling buffer. The protein concentration of the mitochondrial solution was 5 mg/ml. […] The solution was then diluted by water, and Ca^2+ concentration of the solution was measured by atomic absorbance spectrometer (Hitachi High-Technologies Corporation, Z-2710, Tokyo, Japan).

For test [5], the system named is recombinant MCU multimers. More on the design: method as in PMID 26285678. The conditions noted are these: lipid bilayer; cited from earlier work.

These results are taken from PMC5511861, “DS16570511 is a small-molecule inhibitor of the mitochondrial calcium uniporter” (Cell Death Discovery, 2017).

As to `N#CC(C#N)=NNc1ccc(OC(F)(F)F)cc1` [FCCP, carbonyl cyanide-p-trifluoromethoxyphenylhydrazone], the “effect on mitochondrial membrane potential” value in test [1] is given as “disruption of the potential in a dose-dependent manner”.

In the case of `N=C(N)SCCc1ccc(OCc2ccc([N+](=O)[O-])cc2)cc1` [KB-R7943], the “effect on agonist-induced mitochondrial Ca2+ influx” value with Hela cells is “inhibit”.

`CS(=O)(=O)O.CS(=O)(=O)O.O=S1(=O)CCN(Cc2cc(NCC3CCOCC3)c3[nH]c(-c4ccccc4)cc3c2)CC1` [NecroX-5]: in the test with cultured myocytes, the “effect on Ca2+ accumulation” value is “attenuate”.

With `N.N.N.N.N.N.N.N.O=C[O-].O=C[O-].[O-2].[Ru+3].[Ru+4]` [Ru360, Ruthenium 360, reference compound], in test [1], the “effect on mitochondrial membrane potential” value is “no effect”. Moreover, in test [2], the IC50 was 20 nM.

As for `N.N.N.N.N.N.N.N.N.N.N.N.N.N.[Cl-].[Cl-].[Cl-].[Cl-].[Cl-].[Cl-].[O-2].[O-2].[Ru+3].[Ru+3].[Ru+4]` [RuR, Ruthenium Red], in test [3], the “effect on Ca2+ uptake activity of isolated pig heart mitochondria (in words)” value is given as “fully blocked”. Further, the IC50 stood at 30 nM in test [3] (read-out: IC50, inhibition of Ca2+ uptake of pig heart mitochondria) and 100 nM in test [4]. The “effect on Ca2+ channel activity mediated by recombinant MCU multimers” value in test [5] is listed as “inhibited”.

One may read the IC50 as the concentration needed to halve the response being measured.
